Reference: ChEMBL document CHEMBL1157194, “Recent advances in selective alpha1-adrenoreceptor antagonists as antihypertensive agents” (Bioorg Med Chem, 2008)

What was measured:
[1] = Binding affinity to adrenergic alpha1 receptor
[2] = Binding affinity to adrenergic alpha1L receptor
[3] = Binding affinity to adrenergic alpha1H receptor
Rattus norvegicus = species: Rattus norvegicus; test: Antagonistic activity at alpha 1-adrenoceptor in rat; format: functional, organism-based; conditions: read-out: pA2 (converted)
[4] = Binding affinity to adrenergic alpha1N receptor
[5] = Antagonist activity at adrenergic alpha1 receptor; format: functional
[6] = target: T1, Alpha-1B adrenergic receptor (Homo sapiens) (UniProt P35368); test: Antagonist activity at adrenergic Alpha-1B receptor; format: functional
T1 sequence (whole entry): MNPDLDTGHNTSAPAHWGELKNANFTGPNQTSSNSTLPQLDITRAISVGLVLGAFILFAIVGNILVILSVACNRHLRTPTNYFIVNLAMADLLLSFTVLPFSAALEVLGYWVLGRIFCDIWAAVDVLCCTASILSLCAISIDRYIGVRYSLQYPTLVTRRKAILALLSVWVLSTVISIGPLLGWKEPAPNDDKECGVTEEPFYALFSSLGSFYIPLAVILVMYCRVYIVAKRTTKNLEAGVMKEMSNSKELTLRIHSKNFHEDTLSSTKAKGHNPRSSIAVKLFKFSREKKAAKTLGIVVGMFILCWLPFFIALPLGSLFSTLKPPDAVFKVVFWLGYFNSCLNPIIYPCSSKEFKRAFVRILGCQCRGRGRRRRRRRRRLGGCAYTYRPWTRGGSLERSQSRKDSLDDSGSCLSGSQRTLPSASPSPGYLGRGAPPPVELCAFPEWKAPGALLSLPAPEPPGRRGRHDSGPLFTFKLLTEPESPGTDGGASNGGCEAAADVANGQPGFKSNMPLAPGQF

[7] = target: T2, Alpha-1D adrenergic receptor (Homo sapiens) (UniProt P25100); test: Antagonist activity at adrenergic Alpha-1D receptor; format: functional
T2 sequence (whole entry): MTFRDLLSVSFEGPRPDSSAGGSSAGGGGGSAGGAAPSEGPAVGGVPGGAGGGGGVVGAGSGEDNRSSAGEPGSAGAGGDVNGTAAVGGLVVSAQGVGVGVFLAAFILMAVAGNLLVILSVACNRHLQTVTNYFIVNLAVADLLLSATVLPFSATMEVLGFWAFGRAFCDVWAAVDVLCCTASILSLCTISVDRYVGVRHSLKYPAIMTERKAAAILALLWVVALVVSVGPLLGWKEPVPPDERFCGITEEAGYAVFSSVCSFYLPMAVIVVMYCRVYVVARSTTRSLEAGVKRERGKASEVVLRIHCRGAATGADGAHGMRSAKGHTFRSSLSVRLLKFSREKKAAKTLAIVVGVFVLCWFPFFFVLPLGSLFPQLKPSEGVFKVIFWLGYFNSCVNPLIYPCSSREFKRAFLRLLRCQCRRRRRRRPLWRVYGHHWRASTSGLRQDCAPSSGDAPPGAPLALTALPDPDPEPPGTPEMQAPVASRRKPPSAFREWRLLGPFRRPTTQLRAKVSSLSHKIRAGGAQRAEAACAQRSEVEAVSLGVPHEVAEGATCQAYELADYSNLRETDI

[8] = Selectivity for alpha2 adrenergic receptor over alpha1 adrenergic receptor
[9] = Binding affinity to adrenergic alpha2 receptor
D(2) dopamine receptor = D(2) dopamine receptor (Homo sapiens, UniProt P14416); test: Binding affinity to dopamine D2 receptor
D(3) dopamine receptor = D(3) dopamine receptor (Homo sapiens, UniProt P35462); test: Binding affinity to dopamine D3 receptor
[10] = target: 5-hydroxytryptamine receptor 1B (Homo sapiens, UniProt P28222); test: Binding affinity to 5HT1B
[11] = target: T3, Alpha-1A adrenergic receptor (Homo sapiens, UniProt P35348); test: Binding affinity to adrenergic alpha1A receptor
T3 sequence (P35348 whole entry): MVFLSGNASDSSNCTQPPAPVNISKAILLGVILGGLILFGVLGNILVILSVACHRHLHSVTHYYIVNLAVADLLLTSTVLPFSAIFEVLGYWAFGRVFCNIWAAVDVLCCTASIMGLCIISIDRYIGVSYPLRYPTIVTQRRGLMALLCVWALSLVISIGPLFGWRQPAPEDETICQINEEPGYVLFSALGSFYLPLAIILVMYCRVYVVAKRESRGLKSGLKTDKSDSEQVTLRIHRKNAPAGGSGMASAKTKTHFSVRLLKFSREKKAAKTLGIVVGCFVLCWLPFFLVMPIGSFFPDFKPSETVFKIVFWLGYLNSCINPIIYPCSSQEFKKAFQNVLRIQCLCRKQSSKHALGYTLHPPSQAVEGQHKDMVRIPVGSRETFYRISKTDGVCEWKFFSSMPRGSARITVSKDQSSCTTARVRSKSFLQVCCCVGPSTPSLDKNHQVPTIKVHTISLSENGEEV

[12] = Binding affinity to 5HT2
[13] = target: T4, 5-hydroxytryptamine receptor 1A (Homo sapiens, UniProt P08908); test: Binding affinity to 5HT1A
T4 sequence (P08908 whole entry): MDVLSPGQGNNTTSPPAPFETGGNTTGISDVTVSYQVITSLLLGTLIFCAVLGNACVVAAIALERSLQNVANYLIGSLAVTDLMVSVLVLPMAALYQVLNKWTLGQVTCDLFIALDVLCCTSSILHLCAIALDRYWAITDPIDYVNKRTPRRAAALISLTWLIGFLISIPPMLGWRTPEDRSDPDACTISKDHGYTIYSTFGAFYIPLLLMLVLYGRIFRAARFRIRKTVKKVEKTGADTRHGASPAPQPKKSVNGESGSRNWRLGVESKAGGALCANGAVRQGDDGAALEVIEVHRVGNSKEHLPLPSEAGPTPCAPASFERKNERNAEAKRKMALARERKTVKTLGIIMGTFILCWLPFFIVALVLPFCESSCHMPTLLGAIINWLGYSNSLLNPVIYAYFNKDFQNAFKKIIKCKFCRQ

[14] = target: T5, Alpha-1A adrenergic receptor (Rattus norvegicus) (UniProt P43140); test: Antagonist activity at rat spleen adrenergic alpha1A receptor relative to phenylephrine; format: functional, tissue-based; set-up: scale not given: the % may be the effect or the level left
T5 sequence (whole entry): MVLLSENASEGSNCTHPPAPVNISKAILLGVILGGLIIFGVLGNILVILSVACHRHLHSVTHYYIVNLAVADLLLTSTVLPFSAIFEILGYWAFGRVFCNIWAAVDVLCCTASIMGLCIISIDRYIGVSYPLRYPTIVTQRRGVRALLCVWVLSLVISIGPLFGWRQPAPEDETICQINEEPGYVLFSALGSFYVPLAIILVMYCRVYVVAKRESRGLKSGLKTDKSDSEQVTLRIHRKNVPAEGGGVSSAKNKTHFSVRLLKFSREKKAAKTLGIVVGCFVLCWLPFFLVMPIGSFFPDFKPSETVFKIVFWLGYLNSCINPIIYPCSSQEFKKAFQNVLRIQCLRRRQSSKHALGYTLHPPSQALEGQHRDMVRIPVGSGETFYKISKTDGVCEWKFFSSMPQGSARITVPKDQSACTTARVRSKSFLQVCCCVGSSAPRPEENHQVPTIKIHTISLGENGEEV

[15] = target: T6, Alpha-1A adrenergic receptor (Oryctolagus cuniculus, UniProt O02824); test: Agonist activity at rabbit urethra adrenergic alpha1A receptor; format: functional
T6 sequence (O02824 whole entry): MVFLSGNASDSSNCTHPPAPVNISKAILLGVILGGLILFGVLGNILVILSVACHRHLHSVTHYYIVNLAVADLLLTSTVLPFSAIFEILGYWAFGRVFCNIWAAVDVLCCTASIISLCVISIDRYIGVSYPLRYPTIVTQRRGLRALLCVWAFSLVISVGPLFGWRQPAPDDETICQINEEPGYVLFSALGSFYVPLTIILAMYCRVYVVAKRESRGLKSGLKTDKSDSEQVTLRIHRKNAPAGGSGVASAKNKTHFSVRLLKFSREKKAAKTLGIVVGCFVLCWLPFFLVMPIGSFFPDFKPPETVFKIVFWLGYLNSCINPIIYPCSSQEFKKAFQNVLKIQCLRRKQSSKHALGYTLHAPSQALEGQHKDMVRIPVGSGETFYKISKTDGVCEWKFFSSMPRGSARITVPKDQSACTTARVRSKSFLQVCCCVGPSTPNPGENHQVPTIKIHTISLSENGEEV

[16] = target: T7, Alpha-1A adrenergic receptor (Oryctolagus cuniculus) (UniProt O02824); test: Antagonist activity at rabbit urethra adrenergic alpha1A receptor relative to phenylephrine; format: functional; set-up: scale not given: the % may be the effect or the level left
T7 sequence (whole entry): T6 sequence (O02824 whole entry)

[17] = target: T8, Alpha-1A adrenergic receptor (Rattus norvegicus, UniProt P43140); test: (§1) Antagonist activity at rat spleen adrenergic alpha1A receptor; format: functional, tissue-based; conditions: read-out: pA2 (converted)
T8 sequence (P43140 whole entry): T5 sequence (whole entry)

[18] = target: T5, Alpha-1A adrenergic receptor (Rattus norvegicus); test: as §1; format: functional, tissue-based
[19] = Dissociation constant, pKb of the compound; format: physicochemical
Homo sapiens [20] = species: Homo sapiens; test: Selectivity for human alpha1A adrenergic receptor over human cloned Alpha-2C adrenergic receptor
Homo sapiens [21] = species: Homo sapiens; test: Selectivity for human alpha1A adrenergic receptor over human cloned alpha2A adrenergic receptor
Homo sapiens [22] = species: Homo sapiens; test: Selectivity for human alpha1A adrenergic receptor over human cloned alpha2B adrenergic receptor
[23] = target: 5-hydroxytryptamine receptor 2A (Homo sapiens, UniProt P28223); test: Binding affinity to 5HT2A
D(4) dopamine receptor = target: T9, D(4) dopamine receptor (Homo sapiens, UniProt P21917); test: Binding affinity to human cloned dopamine D4.4 receptor
T9 sequence (P21917 whole entry): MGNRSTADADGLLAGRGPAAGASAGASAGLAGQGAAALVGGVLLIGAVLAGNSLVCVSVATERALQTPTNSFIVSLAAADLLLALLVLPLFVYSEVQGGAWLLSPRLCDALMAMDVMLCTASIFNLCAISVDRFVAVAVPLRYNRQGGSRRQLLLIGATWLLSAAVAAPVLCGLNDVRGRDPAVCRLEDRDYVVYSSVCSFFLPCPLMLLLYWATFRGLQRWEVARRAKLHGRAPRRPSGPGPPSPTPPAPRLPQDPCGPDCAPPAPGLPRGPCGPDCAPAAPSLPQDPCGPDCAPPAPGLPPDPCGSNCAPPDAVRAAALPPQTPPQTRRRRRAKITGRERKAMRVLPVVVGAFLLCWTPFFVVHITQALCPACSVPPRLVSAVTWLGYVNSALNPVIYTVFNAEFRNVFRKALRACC

[24] = Binding affinity to human cloned dopamine D4.2 receptor
[25] = Binding affinity to human cloned dopamine D4.7 receptor

Chain of D(2) dopamine receptor (P14416 whole entry): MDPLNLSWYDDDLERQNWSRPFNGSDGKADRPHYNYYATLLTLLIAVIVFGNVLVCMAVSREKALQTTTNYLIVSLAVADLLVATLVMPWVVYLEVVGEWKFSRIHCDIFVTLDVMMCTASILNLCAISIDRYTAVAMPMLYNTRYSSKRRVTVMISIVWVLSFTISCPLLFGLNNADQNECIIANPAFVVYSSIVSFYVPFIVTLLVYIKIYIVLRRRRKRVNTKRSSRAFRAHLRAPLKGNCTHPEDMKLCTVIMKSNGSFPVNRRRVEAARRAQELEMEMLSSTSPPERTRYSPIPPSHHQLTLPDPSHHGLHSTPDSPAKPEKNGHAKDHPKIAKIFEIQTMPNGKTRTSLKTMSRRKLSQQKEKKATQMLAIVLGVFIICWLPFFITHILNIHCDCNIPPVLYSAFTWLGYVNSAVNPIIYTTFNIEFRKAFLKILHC
Chain of D(3) dopamine receptor (P35462 whole entry): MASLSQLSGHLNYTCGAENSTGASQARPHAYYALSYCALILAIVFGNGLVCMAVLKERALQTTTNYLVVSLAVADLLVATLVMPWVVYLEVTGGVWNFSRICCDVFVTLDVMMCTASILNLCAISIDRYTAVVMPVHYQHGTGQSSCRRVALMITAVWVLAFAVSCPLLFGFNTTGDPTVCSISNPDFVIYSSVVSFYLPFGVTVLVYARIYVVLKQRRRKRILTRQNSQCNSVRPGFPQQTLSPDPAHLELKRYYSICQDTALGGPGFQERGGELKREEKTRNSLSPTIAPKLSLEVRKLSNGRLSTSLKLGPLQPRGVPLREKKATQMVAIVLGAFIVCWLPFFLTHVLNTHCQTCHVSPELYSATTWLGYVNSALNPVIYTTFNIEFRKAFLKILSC
Chain of 5-hydroxytryptamine receptor 2A (P28223 whole entry): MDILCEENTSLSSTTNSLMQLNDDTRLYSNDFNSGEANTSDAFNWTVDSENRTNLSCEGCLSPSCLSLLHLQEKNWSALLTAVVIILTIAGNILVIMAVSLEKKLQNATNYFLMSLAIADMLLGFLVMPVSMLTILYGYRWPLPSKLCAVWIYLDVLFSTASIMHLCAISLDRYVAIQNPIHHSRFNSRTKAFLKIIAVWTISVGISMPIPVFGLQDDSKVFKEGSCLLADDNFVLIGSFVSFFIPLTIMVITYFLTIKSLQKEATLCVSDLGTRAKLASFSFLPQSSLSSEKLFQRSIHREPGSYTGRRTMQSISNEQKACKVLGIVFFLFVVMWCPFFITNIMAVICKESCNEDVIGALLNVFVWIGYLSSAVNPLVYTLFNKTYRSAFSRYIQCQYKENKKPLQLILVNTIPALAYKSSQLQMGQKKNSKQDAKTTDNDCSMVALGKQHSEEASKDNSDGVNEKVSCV
Chain of 5-hydroxytryptamine receptor 1B (P28222 whole entry): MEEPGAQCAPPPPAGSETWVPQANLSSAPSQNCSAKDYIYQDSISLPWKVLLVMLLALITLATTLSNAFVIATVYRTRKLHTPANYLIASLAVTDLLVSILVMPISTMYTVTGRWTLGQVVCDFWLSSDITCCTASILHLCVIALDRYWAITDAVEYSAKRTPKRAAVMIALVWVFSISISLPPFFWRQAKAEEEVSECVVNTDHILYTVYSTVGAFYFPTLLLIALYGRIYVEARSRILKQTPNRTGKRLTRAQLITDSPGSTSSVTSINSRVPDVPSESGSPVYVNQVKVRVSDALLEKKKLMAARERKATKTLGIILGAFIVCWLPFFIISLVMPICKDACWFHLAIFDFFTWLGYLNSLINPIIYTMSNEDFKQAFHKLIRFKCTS

## COc1cccc(OC)c1OCCNCC1COc2ccccc2O1 (configuration not stated)
[1]
  Ki: 0.54 nM

## NC(=O)CN(CCc1ccccc1)C(=O)CN(C(=O)CNCCc1ccc(O)cc1)c1ccc(Oc2ccccc2)cc1
[1]; read-out: Ki
  Ki: 140 nM

## COc1cc2nc(N3CCN(C(=O)c4ccco4)CC3)nc(N)c2cc1OC [PRAZOSIN]
[2]
  Kb: > 2 nM
[3]
  Kb: < 1 nM
Rattus norvegicus
  Kb: 10 nM
[4]
  Kb: > 2 nM
[1]; read-out: Ki
  Ki: 0.32 nM

## CN1CCN(C2=Nc3cc(Cl)ccc3Nc3ccccc32)CC1 [CLOZAPINE]
[1]; read-out: Ki
  Ki: 1.4 nM

## COc1ccc(Cl)cc1N1CCN(CCNC(=O)c2ccco2)CC1.Cl
[5]
  pA2: 8.56

## COc1cccc(N2CCN(CCNC(=O)c3ccco3)CC2)c1.Cl
[5]
  pA2: 8.56

## O=C1NCCN1CCN1CCC(c2cn(-c3ccc(F)cc3)c3ccc(Cl)cc23)CC1
[6]
  Activity: 3.2 nM
[7]
  Activity: 9 nM

## COC(=O)[C@@H]1[C@H]2C[C@H]3c4[nH]c5ccccc5c4CCN3C[C@@H]2CC[C@@H]1O
[3]
  Kb: > 300 nM
[4]
  Kb: < 100 nM

## O=C(CCCN1CCC(O)(c2ccc(Cl)cc2)CC1)c1ccc(F)cc1 [HALOPERIDOL]
[1]; read-out: Ki
  Ki: 1 nM

## COc1ccccc1OCCN1CCN(c2ccc(=O)n(Cn3nc(N4CCN(CCOc5ccccc5OC)CC4)ccc3=O)n2)CC1
[8]
  Selectivity ratio: > 100

## CC(C)Oc1ccccc1N1CCN(Cc2cccc(C(=O)N3CCCCC3)c2)CC1 [MAZAPERTINE]
[9]
  Ki: 17 nM
D(2) dopamine receptor
  Ki: < 4 nM
D(3) dopamine receptor
  Ki: < 4 nM
[10]
  Ki: 2880 nM
[11]
  Ki: 0.02 nM
[12]
  Ki: 165 nM
[13]
  Ki: < 4 nM
[1]; read-out: Ki
  Ki: < 4 nM

## CCS(=O)(=O)Nc1cccc(Cc2c[nH]cn2)c1
[14]
  Activity: 11%
[15]
  EC50: 60 nM
[16]
  Activity: 80%
[17]
  Kb: 3980 nM
[18]
  pD2: 6.16

## COc1ccccc1OCCN1CCN(c2ccn[nH]c2=O)CC1
[19]
  pKb: 6.18

## NC(=O)CN(CCc1ccccc1)C(=O)CN(C(=O)CNCCc1ccc(O)cc1)c1ccc(-c2ccccc2)cc1
[1]; read-out: Ki
  Ki: 0.32 nM

## Cc1cc(C)c2c(N)nc(N3CCN(C(=O)c4ccco4)CC3)nc2n1
Rattus norvegicus
  Kb: 15.8 nM

## COC(=O)C1=C(C)NC(C)=C(C(=O)NCCCN2CCC(c3ccccc3)(c3ccccc3)CC2)C1c1ccc([N+](=O)[O-])cc1 (configuration not stated)
Homo sapiens [20]
  Selectivity ratio: > 1000
Homo sapiens [21]
  Selectivity ratio: > 1000
Homo sapiens [22]
  Selectivity ratio: > 1000

## COc1ccccc1N1CCN(CCNC(=O)c2ccco2)CC1.Cl
[5]
  pA2: 9.12

## NC(=O)CN(CCc1ccc(-c2ccccc2)cc1)C(=O)CN(C(=O)CNCCc1ccc(O)cc1)c1ccc(-c2ccccc2)cc1
[1]; read-out: Ki
  Ki: 310 nM

## Nc1nc(-c2ccc(F)cc2)c([C@@H]2CCN(CCCC(=O)c3ccc(F)cc3)C2)s1
[23]
  Ki: 1.92 nM
D(4) dopamine receptor
  Ki: 0.55 nM
[24]
  Ki: 2.54 nM
[25]
  Ki: 0.54 nM
[1]; read-out: Ki
  Ki: 1.4 nM
